Reference: ChEMBL document CHEMBL4043164, “Design, synthesis and biological evaluation of novel antitumor spirotetrahydrothiopyran-oxindole derivatives as potent p53-MDM2 inhibitors” (Bioorg Med Chem, 2017)

Columns and labels:
HCT-116 = test: Cytotoxicity against human HCT116 cells assessed as reduction in cell viability incubated for 24 hrs by CCK8 assay; settings: HCT-116, 24 h
MCF7 = test: Cytotoxicity against human MCF7 cells assessed as reduction in cell viability incubated for 24 hrs by CCK8 assay; settings: MCF7, 24 h
A549 = test: Cytotoxicity against human A549 cells assessed as reduction in cell viability incubated for 24 hrs by CCK8 assay; settings: A549, 24 h

| Structure (SMILES) | IC50 (HCT-116) | IC50 (MCF7) | IC50 (A549) |
| --- | --- | --- | --- |
| COc1ccc(C2=N[C@H](c3ccc(Cl)cc3)[C@H](c3ccc(Cl)cc3)N2C(=O)N2CCNC(=O)C2)c(OC(C)C)c1 | 28.4 µM | 14.9 µM | 10 µM |
| COc1ccc(N2C[C@H]3[C@@H](CS[C@]4(C(=O)Nc5cccc(Br)c54)[C@@H]3c3ccc(Br)cc3)CC2=O)cc1 | 8.3 µM | 3 µM | 4.3 µM |
| O=C1C[C@@H]2CS[C@]3(C(=O)Nc4cccc(Br)c43)[C@H](c3ccc(Br)cc3)[C@H]2CN1c1ccccc1 | 8.6 µM | 4 µM | 4.2 µM |
| COC(=O)C[C@@H]1CS[C@]2(C(=O)Nc3cccc(Br)c32)[C@H](c2ccc(Br)cc2)[C@H]1CNc1ccccc1F | 10.5 µM | 3.6 µM | 4.2 µM |
| O=C1Nc2cccc(Br)c2[C@@]12SC[C@@H](CCO)[C@H](CO)[C@H]2c1ccc(Br)cc1 | 19.1 µM | 13.5 µM | 16.5 µM |
| COC(=O)C[C@@H]1CS[C@]2(C(=O)Nc3cccc(Br)c32)[C@H](c2ccc(Br)cc2)[C@H]1CNc1cccc(F)c1 | 8.6 µM | 2.8 µM | 3.5 µM |
| CCOc1ccc(N2C[C@H]3[C@@H](CS[C@]4(C(=O)Nc5cccc(Br)c54)[C@@H]3c3ccc(Br)cc3)CC2=O)cc1 | 10.4 µM | 3.2 µM | 2.6 µM |
| O=C1C[C@@H]2CS[C@]3(C(=O)Nc4cccc(Br)c43)[C@H](c3ccc(Br)cc3)[C@H]2CN1c1cccc(F)c1 | 9.5 µM | 3.8 µM | 3.5 µM |
| CN1CCN(c2ccc(N3C[C@H]4[C@@H](CS[C@]5(C(=O)Nc6cccc(Br)c65)[C@@H]4c4ccc(Br)cc4)CC3=O)cc2)CC1 | 8.8 µM | 5.9 µM | 6.3 µM |
| O=C1C[C@@H]2CS[C@]3(C(=O)Nc4cccc(Br)c43)[C@H](c3ccc(Br)cc3)[C@H]2CN1c1ccc(N2CCOCC2)cc1 | 4.3 µM | 2.4 µM | 2.6 µM |
| Cc1ccc(N2C[C@H]3[C@@H](CS[C@]4(C(=O)Nc5cccc(Br)c54)[C@@H]3c3ccc(Br)cc3)CC2=O)cc1 | 5.1 µM | 3 µM | 4.6 µM |
| O=C1C[C@@H]2CS[C@]3(C(=O)Nc4cccc(Br)c43)[C@H](c3ccc(Br)cc3)[C@H]2CN1c1ccc(Cl)cc1 | 8 µM | 4.2 µM | 4.8 µM |
| O=C1C[C@@H]2CS[C@]3(C(=O)Nc4cccc(Br)c43)[C@H](c3ccc(Br)cc3)[C@H]2CN1c1ccc(F)cc1F | 9.8 µM | 4.4 µM | 2.5 µM |
| COC(=O)C[C@@H]1CS[C@]2(C(=O)Nc3cccc(Br)c32)[C@H](c2ccc(Br)cc2)[C@H]1C=O | 17.3 µM | 8.5 µM | 11.2 µM |
| O=C1C[C@@H]2CS[C@]3(C(=O)Nc4cccc(Br)c43)[C@H](c3ccc(Br)cc3)[C@H]2CN1c1ccc(F)cc1 | 10.5 µM | 4 µM | 4.4 µM |
| O=C1C[C@@H]2CS[C@]3(C(=O)Nc4cccc(Br)c43)[C@H](c3ccc(Br)cc3)[C@H]2CN1c1ccccc1F | 9.3 µM | 4.6 µM | 2.3 µM |
| O=C1C[C@@H]2CS[C@]3(C(=O)Nc4cccc(Br)c43)[C@H](c3ccc(Br)cc3)[C@H]2CN1c1ccc(-c2ccccc2)cc1 | 5.6 µM | 6.9 µM | 4.1 µM |
| CCN(CC)c1ccc(N2C[C@H]3[C@@H](CS[C@]4(C(=O)Nc5cccc(Br)c54)[C@@H]3c3ccc(Br)cc3)CC2=O)cc1 | 2.4 µM | 1.8 µM | 2.9 µM |
| CCOc1cccc(N2C[C@H]3[C@@H](CS[C@]4(C(=O)Nc5cccc(Br)c54)[C@@H]3c3ccc(Br)cc3)CC2=O)c1 | 8.5 µM | 3.6 µM | 4.5 µM |
